According to patent US20210355121A1, “FUSED TRICYCLIC KRAS INHIBITORS” (Incyte Corporation, priority 2020, published 2021):
Like-named read-outs stand apart in the source and are kept apart here.

Experiments:
KRAS G12C = KRAS G12C (Homo sapiens, UniProt P01116, G12C); test: KRAS G12C GDP-GTP exchange assay (bodipy-GDP for GppNHp, with SOS1); type: biochemical; conditions: 2.5 nM bodipy-loaded KRAS G12C, 2 hours pre-incubation with inhibitor, 2 hours after GppNHp-SOS1; read-out: G12C_exchange (KRAS_G12C exchange assay IC50)
Protocol: The inhibitor potency of the exemplified compounds was determined in a fluorescence based guanine nucleotide exchange assay, which measures the exchange of bodipy-GDP (fluorescently labeled GDP) for GppNHp (Non-hydrolyzable GTP analog) to generate the active state of KRAS in the presence of SOS1 (guanine nucleotide exchange factor). Inhibitors were serially diluted in DMSO and a volume of 0.1 μL was transferred to the wells of a black low volume 384-well plate. 5 μL/well volume of bodipy-loaded KRAS G12C diluted to 5 nM in assay buffer (25 mM Hepes pH 7.5, 50 mM NaCl, 10 mM MgCl2 and 0.01% Brij-35) was added to the plate and pre-incubated with inhibitor for 2 hours at ambient temperature. Appropriate controls (enzyme with no inhibitor or with a G12C inhibitor (AMG-510)) were included on the plate. The exchange was initiated by the addition of a 5 μL/well volume containing 1 mM GppNHp and 300 nM SOS1 in assay buffer. The 10 μL/well reaction concentration of the bodipy-loaded KRAS G12C, GppNHp, and SOS1 were 2.5 nM, 500 uM, and 150 nM, respectively. The reaction plates were incubated at ambient temperature for 2 hours, a time estimated for complete GDP-GTP exchange in the absence of inhibitor. For the KRAS G12D and G12V mutants, similar guanine nucleotide exchange assays were used with 2.5 nM as final concentration for the bodipy loaded KRAS proteins and with 4 hours and 3 hours incubation after adding GppNHp-SOS1 mixture for G12D and G12V respectively. A cyclic peptide described to selectively bind G12D mutant (Sakamoto et al., BBRC 484.3 (2017), 605-611) or internal compounds with confirmed binding were used as positive controls in the assay plates. Fluorescence intensities were measured on a PheraStar plate reader instrument (BMG Labtech) with excitation at 485 nm and emission at 520 nm.
Either GraphPad prism or XLfit was used to analyze the data. The IC50 values were derived by fitting the data to a four parameter logistic equation producing a sigmoidal dose-response curve with a variable Hill coefficient. Prism equation: Y=Bottom+(Top−Bottom)/(1+10^((Log IC50−X)*Hill slope)); XLfit equation: Y=(A+((B−A)/(1+((X/C)^D)))) where X is the logarithm of inhibitor concentration and Y is the response.

[1] = tested on: MIA PaCa-2 (KRAS G12C) cells; test: KRAS_G12C cellular pERK HTRF assay; type: cell-based, human; parameters: G12C_pERK (KRAS_G12C pERK assay IC50): scale not given here; conditions: phospho-ERK1/2 HTRF, 4 hours incubation; for IC50: read-out: G12C_pERK (KRAS_G12C pERK assay IC50)
Protocol: MIA PaCa-2 (KRAS G12C; ATCC® CRL-1420), A427 (KRAS G12D; ATCC® HTB53), HPAF-II (KRAS G12D; ATCC® CRL-1997) and NCI-H838 (KRAS WT; ATCC® CRL-5844) cells are purchased from ATCC and maintained in RPMI 1640 media supplemented with 10% FBS (Gibco/Life Technologies). The cells are plated at 5000 cells per well (8 uL) into Greiner 384-well low volume, flat-bottom, tissue culture treated white plates and incubated overnight at 37° C., 5% CO2. The next morning, test compound stock solutions are diluted in media at 3× the final concentration, and 4 uL are added to the cells. The plate is mixed by gentle rotation for 30 seconds (250 rpm) at room temperature. The cells are incubated with the KRAS G12C and G12D compounds for 4 hours or 2 hours respectively at 37° C., 5% CO2.
4 uL of 4× lysis buffer with blocking reagent (1:25) (Cisbio) are added to each well and plates are rotated gently (300 rpm) for 30 minutes at room temperature. 4 uL per well of Cisbio anti Phospho-ERK 1/2 d2 is mixed with anti Phospho-ERK 1/2 Cryptate (1:1) are added to each well, mixed by rotation and incubated overnight in the dark at room temperature. Plates are read on the Pherastar plate reader at 665 nm and 620 nm wavelengths. IC50 determination is performed by fitting the curve of inhibitor percent inhibition versus the log of the inhibitor concentration using the GraphPad Prism 7 software.

KRAS G12C, sequence (P01116 1-188 isoform P01116-2 G12C): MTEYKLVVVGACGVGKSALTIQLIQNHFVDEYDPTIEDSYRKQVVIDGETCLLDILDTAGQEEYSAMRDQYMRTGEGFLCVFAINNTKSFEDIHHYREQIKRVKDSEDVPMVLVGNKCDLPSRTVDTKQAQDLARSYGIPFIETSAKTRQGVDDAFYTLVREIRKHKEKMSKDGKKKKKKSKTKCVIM

IC50 (KRAS G12C) [nM] | IC50 ([1]; Homo sapiens, MIA PaCa-2) [nM] | G12C_pERK (KRAS_G12C pERK assay IC50) [1] | IC50 [1] [nM] | SMILES
≤ 100 | ≤ 100 | – | – | COC/C=C/C(=O)N1CC[C@H](n2ncc3c(OC[C@@H]4CCCN4C)nc4c(F)c(-c5cccc6cccc(C#N)c56)c(C)cc4c32)C[C@H]1CC#N (single isomer, unassigned) [Example 54a]
≤ 100 | – | †† | – | C=CC(=O)N1CCC(n2ncc3cnc4c(F)c(-c5cc(O)cc6ccccc56)c(Cl)cc4c32)CC1 [Example 1]
≤ 100 | ≤ 100 | – | – | COC/C=C/C(=O)N1CC[C@H](n2ncc3c(N4CC(C)(N(C)C)C4)nc4c(F)c(-c5c(C)c(Cl)cc6[nH]ncc56)c(Cl)cc4c32)C[C@H]1CC#N (single isomer, unassigned) [Example 12a]
≤ 100 | – | – | ≤ 100 | CC#CC(=O)N1CC[C@H](n2ncc3c(N4CC(N(C)C)C4)nc4c(F)c(-c5cccc(Cl)c5Cl)c(Cl)cc4c32)C[C@H]1CC#N (single isomer, unassigned) [Example 26b]
≤ 100 | ≤ 100 | – | – | C=CC(=O)N1CC[C@H](n2ncc3c(N4CC(N(C)C)C4)nc4c(F)c(-c5ccc(F)c6cccnc56)c(Cl)cc4c32)C[C@H]1CC#N (single isomer, unassigned) [Example 21a]
≤ 100 | ≤ 100 | – | – | CC#CC(=O)N1CC[C@H](n2ncc3c(O[C@@H](C)[C@@H]4CCCN4C)nc4c(F)c(-c5c(C)c(C)cc6[nH]ncc56)c(C)cc4c32)C[C@H]1CC#N (single isomer, unassigned) [Example 69b]
≤ 100 | ≤ 100 | – | – | Cc1c(Cl)cc2[nH]ncc2c1-c1c(Cl)cc2c(nc(N3CC(C)(N(C)C)C3)c3cnn([C@H]4CCN(C(=O)/C=C/C(F)F)[C@H](CC#N)C4)c32)c1F (single isomer, unassigned) [Example 14a]
≤ 100 | ≤ 100 | – | – | C=C(F)C(=O)N1CC[C@H](n2ncc3c(O[C@@H](C)[C@@H]4CCCN4C)nc4c(F)c(-c5cccc6cccc(Cl)c56)c(Cl)cc4c32)C[C@H]1CC#N [Example 86, 2-((2S,4S)-4-(8-chloro-7-(8-chloronaphthalen-1-yl)-6-fluoro-4-((S)-1-((S)-1-methylpyrrolidin-2-yl)ethoxy)-1H-pyrazolo[4,3-c]quinolin-1-yl)-1-(2-fluoroacryloyl)piperidin-2-yl)acetonitrile]
≤ 100 | ≤ 100 | – | – | COC/C=C/C(=O)N1CC[C@H](n2ncc3c(N4CC(N(C)C)C4)nc4c(F)c(-c5c(C)c(Cl)cc6[nH]ncc56)c(Cl)cc4c32)C[C@H]1CC#N (single isomer, unassigned) [Example 5a]
≤ 100 | ≤ 100 | – | – | C=C(F)C(=O)N1CC[C@H](n2ncc3c(OCC4CCCN4C)nc4c(F)c(-c5c(C)c(C)cc6[nH]ncc56)c(Cl)cc4c32)C[C@H]1CC#N (single isomer, unassigned) [Example 77a]
≤ 100 | ≤ 100 | – | – | C=CC(=O)N1CC[C@H](n2ncc3c(N4CC(N(C)C)C4)nc4c(F)c(-c5cccc(C)c5C(F)(F)F)c(Cl)cc4c32)C[C@H]1CC#N [Example 27, 2-((2S,4S)-1-acryloyl-4-(8-chloro-4-(3-(dimethylamino)azetidin-1-yl)-6-fluoro-7-(3-methyl-2-(trifluoromethyl)phenyl)-1H-pyrazolo[4,3-c]quinolin-1-yl)piperidin-2-yl)acetonitrile]
≤ 100 | ≤ 100 | – | – | COC/C=C/C(=O)N1CC[C@H](n2ncc3c(O[C@@H](C)[C@@H]4CCCN4C)nc4c(F)c(-c5cccc6cccc(C#N)c56)c(C)cc4c32)C[C@H]1CC#N (single isomer, unassigned) [Example 57b]
≤ 100 | ≤ 100 | – | – | Cc1c(Cl)cc2[nH]ncc2c1-c1c(Cl)cc2c(nc(N3CC(C)(N(C)C)C3)c3cnn([C@H]4CCN(C(=O)/C=C/CN(C)C)[C@H](CC#N)C4)c32)c1F (single isomer, unassigned) [Example 10a]
